Patent US7772218B2, “Synthesis of anti-estrogenic and other therapeutic steroids from 21-hydroxy-19-norpregna-4-en-3-one” (SRI International, priority 2000, dated 2010)
Structures can show the parent of a compound that is named as a salt.

Assays:
[1] = tested on: DU145 cells; experiment: growth inhibition assay (MTT), androgen-independent human prostate cancer cells; assay type: cell-based; conditions: concentrations of 5 μM or higher, 7 days of treatment, 575 nm
Method: (§1) [drawing 32] was synthesized as described in Example 4 without methylation at the 7-position of the steroid nucleus. The compound was evaluated for its inhibitory effect on androgen-independent human prostate cancer cells, DU145 cells and PC-3 cells, in a standard in vitro androgen-independent human prostate cancer assay.
(§2) DU145 and PC-3 human prostate cancer cell lines were obtained from the American Type Culture Collection, Rockville, Md. Eagle's minimum essential medium, RPMI-1640 medium, fetal calf serum, nonessential amino acids, and sodium pyruvate were purchased from Sigma, St. Louis, Mo.
(§3) PC-3 cells were maintained in RPMI-1640 medium supplemented with 10% fetal calf serum (FCS) and DU145 cells in Eagle's minimum essential medium (MEM) supplemented with 10% FCS. 1% nonessential amino acids, and 1 mM pyruvate. All cells were cultured at 37° C. in a 5% CO2/ 95% air atmosphere in 100% humidity. […] After 7 days of treatment, viable cells in each well were measured using the MTT assay as described in “Cellular Proliferation Assay,” in Protocols and Applications, 3rd Edition (Promega Corporation). […]
(§4) The plate was kept at room temperature overnight and the blue color measured at 575 nm on an ELISA plate reader. Based on the optical density of samples treated with the test compound and that of the control, the inhibitory effect of SR 16312 was evaluated.

[2] = tested on: PC-3 cells; experiment: as above; assay type: cell-based; conditions: concentrations of 5 μM or higher, 7 days of treatment, 575 nm
Method: as §1, §2, §3, §4

[3] = rats; cited from earlier work
[4] = rats; cited from earlier work; remark: listed apart in the source
[5] = tested on: human breast tumor cells; conditions: cited from earlier work
[6] = in vivo, cited from earlier work
[7] = tested on: rat uterine tissue; conditions: cited from earlier work
[8] = tested on: human uterine tissue; conditions: cited from earlier work

CCN(CC)Cc1ccc(OCC[C@H]2CCC3C4CCC5=CC(=O)CCC5C4CCC32C)c(OC)c1 (some centres unmarked) [SR 16312]
inhibition [1]: ~100%
inhibition [2]: ~100%

CCN(CC)Cc1ccc(OCC[C@H]2CCC3C4C(CCC32C)c2ccc(O)cc2C[C@H]4C)c(OC)c1 (stereo partly drawn) [SR 16234, 3-hydroxy-7α-methyl-21-[2′-methoxy-4′-(diethylaminomethyl)-phenoxy]-19-norpregna-1,3,5(10)triene citrate]
high-density lipoprotein (HDL) cholesterol levels [3]: increased
low-density lipoprotein (LDL) cholesterol levels [3]: lowered
agonist-estrogenic activity in the skeletal system [4]: maintenance of bone and prevention of bone loss
antagonist-antiestrogenic activity [5]: complete
oral bioavailability ([6]; po): good
absorption [6]: good
half-life [6]: good
anti-uterotrophic antagonist activity [7]: complete
anti-uterotrophic antagonist activity [8]: complete
